Source: patent US20160151408A1, “NOVEL THERAPY FOR MULTIPLE SCLEROSIS USING VITAMIN D AND GUT BACTERIA” (California Institute of Technology, priority 2012, published 2016)

Tests used:
[1] = test system: experimental autoimmune encephalomyelitis (EAE); assay: EAE clinical scores in mice on normal or vitamin D-deficient diet; type: in vivo, C57BL/6 mice
Method: FIG. 2, panels A-D. Graphs showing germ-free (GF) mice are attenuated in EAE. Female C57B1/6 mice were immunized subcutaneously (s.c.) with 150 μg MOG35-55 peptide with 200 μg of Complete Freund's adjuvant (CFA). On the same day and 2 days later, mice were injected intraperitoneally (i.p.) with 150 ng/mouse of pertussis toxin. (FIG. 2, panel A) Clinical EAE scores of SPF (dark symbols) and GF (light symbols). Data are representative of three independent experiments. (FIG. 2, panel B) Proportions of SPF and GF mice that develop various degrees of EAE, as assessed by clinical score. Results are combined from 4 experiments, with a total of 20 for SPF and 22 for GF mice. (FIG. 2, panel C) IFNγ and IL-17A cytokine ELISA analysis of cells harvested from draining lymph nodes of SPF and GF mice 8 days after immunization with MOG/CFA and cultured for 3 days in vitro with MOG peptide. (FIG. 2, panel D) CD4+CD25+Foxp3+ T cells at day 15 post-immunization. Cells were cultured for 3 days with MOG peptide, and analyzed by flow cytometry. Data from Lee et al., PANS, 2011 [2].
FIG. 6. […]
To asses EAE in mice, mice can be evaluated daily for signs of disease. The clinical course of the EAE can be scored according to the severity as follows: 0=no obvious signs of disease, 0.5=partial tail weakness (cannot raise tail against gravity), 1=limp tail, 1.5=limp tail and hindlimb weakness, 2=limp tail and impairment in righting reflex, 2.5=limp tail and hindlimb paresis (as determined by gait abnormality), 3=bilateral hindlimb paralysis, 3.5=bilateral hindlimb paralysis and forelimb paresis (as determined by in ability of the mouse to strongly grasp cage bars with the fore paws when placed on top), 4=moribund, 5=dead. […] Reduced symptoms of EAE can be evaluated by comparing clinical scores.
PSA protects mice from EAE [8]; however, it is unknown whether PSA protection requires vitamin D. To address whether PSA may serve as a viable therapy for vitamin D deficient MS patients, mice on vitamin D sufficient and deficient diets were raised, EAE was induced, and PSA's protective effects were assessed.

[2] = test system: Foxp3 among CD4+CD25+ T cells; assay: Human monocyte / CD4+ T cell co-culture, Foxp3 expression; type: cell-based
Method: (§1) FIG. 5, panels A-C. Graphs and plots showing vitamin D augments the ability of PSA to promote TREGS. (FIG. 5, panel A) Mouse BMDCs were stimulated with PSA (or PBS), and Cyp27b1 transcript levels were measured by qRT-PCR. PSA induces the expression of Cyp27b1 from WT, but not TLR2−/− DCs. (FIG. 5, panel B) Mouse DCs were treated with PSA, washed and co-cultured with naïve CD4+ T cells. After 4 days, PSA increased Foxp3+TREGS (see % in red box). The vitamin D metabolite 25D augmented PSA-induced TREGS. (FIG. 5, panel C) Human monocytes were treated with PSA or vehicle, washed and co-cultured with CD4+ T cells from PBMCs of the same donor. The MR for Foxp3 among CD4+CD25+ T cells is shown, with or without TGFβ.
(§2) Next tested was whether vitamin D enhanced the ability of PSA to induce Foxp3+ TREG cells in vitro. BMDCs treated with PSA or PBS, with or without 25D, were incubated with CD4+ T cells from the spleens of mice. […] The Hewison group has described […] expression of CYP27B1 in human DCs, and has shown the effects of vitamin D on human TREG development in vitro [11]. However, the ability of PSA to induce human Foxp3+ TREG cells has not been reported. […] These studies further link PSA-induced TREGS to the vitamin D pathway. Thus, PSA and vitamin D may promote human TREG cells.

EAE = settings: refs [6,8], [31,32]; cited from earlier work
VDR = VDR mRNA levels in colonic tissue of germ-free mice; settings: oral gavage of GF animals
Cyp27b1 [3] = assay: Colonic Cyp27b1 mRNA by qRT-PCR in mice; settings: mice on vitamin D deficient diet for 6 weeks, fed PSA for 2 weeks
CD4+Foxp3+ T cells = assay: Mouse DC / CD4+ T cell co-culture, Foxp3+ TREG induction; type: cell-based
Method: as §1, §2

Cyp27b1 [4] = assay: Cyp27b1 transcript levels in PSA-stimulated BMDCs (qRT-PCR); type: cell-based, Mouse
Method: as §1
As described, the ability of PSA to protect against colitis & EAE in mice involves Foxp3+ TREGS [8,48]. The inventors recognize that vitamin D may play a pivotal role in microbial-induced TREGS, given the ability of 1,25D to promote TREG generation and the novel findings that PSA induces the vitamin D-system. First, the cell type that is responsible for PSA-dependent conversion of 25D to active 1,25D was made. The inventors have shown that PSA activates DCs, which prime TREG responses.

colitis = settings: refs [4,5,22]; cited from earlier work

polysaccharide A [PSA]
interaction of PSA with vitamin D in EAE protection ([1]; PSA groups on sufficient versus deficient diet): synergizes with vitamin D during protection from EAE | EAE clinical score at the peak of disease ([1]; day 14, vitamin D sufficient and deficient diets, PSA 100 μg/dose orally 3×/week): protected from EAE | EAE clinical score during the remission phase ([1]; day 20-35, vitamin D sufficient diet versus deficient, PSA 100 μg/dose orally 3×/week): attenuated in disease during the remission phase if they were fed vitamin D sufficient diets | Foxp3 expression in human TREGS ([2]; monocytes treated with PSA, co-cultured with CD4+ T cells from PBMCs of the same donor): promotes Foxp3 expression in human TREGS in vitro | EAE disease (literature) (EAE): ameliorates and treats EAE | expression of VDR in the colon (VDR): increases expression of VDR | colonic Cyp27b1 expression (Cyp27b1 [3]): induces increased colonic Cyp27b1 | proportions of CD4+Foxp3+ T cells in culture (CD4+Foxp3+ T cells; BMDCs treated with PSA, co-cultured with CD4+ T cells, 4 days): increases the proportions of CD4+Foxp3+ T cells in culture | Cyp27b1 expression from BMDCs (Cyp27b1 [4]; TLR2−/− DCs): did not respond to PSA | Cyp27b1 expression from BMDCs (Cyp27b1 [4]; WT bone marrow-derived dendritic cells): induces Cyp27b1 expression | colitis (literature) (colitis): prevents and treats colitis in mice

C=C1/C(=C\C=C2/CCC[C@]3(C)[C@@H]([C@H](C)CCCC(C)(C)O)CC[C@@H]23)C[C@@H](O)C[C@@H]1O [1,25D, 1,25-dihydroxyvitamin D3, reference compound]
EAE disease (literature) (EAE): protected from disease

C=C1CC[C@H](O)C/C1=C/C=C1\CCC[C@]2(C)[C@@H]([C@H](C)CCCC(C)(C)O)CC[C@@H]12 [25D, 25-hydroxyvitamin-D3, reference compound]
PSA-induced CD4+Foxp3+ T cells, effect of co-treatment (CD4+Foxp3+ T cells; BMDCs treated with PSA with 25D): enhanced by co-treatment with 25D

TGFβ [reference compound]
PSA-mediated TREG cells, effect of added TGFβ ([2]; with TGFβ): does not further enhance PSA-mediated TREG cells
